Measurements from US9861625B2, “Methods and compositions for treating cancer through inhibition of PI3K” (Duke University, priority 2014, dated 2018).

Legend:
[1] = test system: nine different cells lines; experiment: IPA-3 as a single agent in nine cell lines; assay type: cell-based
Protocol: The 3-(4,5-dimethylthiazol-2-yl)-2,5-diphenyltetrazolium bromide (MTT) cell viability assay was used to determine cell viability in response to drug treatment. Five replicates per concentration tested were carried out in serial dilutions with a total of ten concentrations with a 50% reduction in drug concentration per dilution for each plate. A total of 15 μl of MTT reagent was added to each drug-treated well and incubated for three hours in 37° C. Detergent was added to each drug-treated well and incubated overnight at room temperature without exposure to light. Absorbance was measured at 570 nm using a plate reader from Tecan Group. The IC50 concentration was determined using the publicly available ED50 plus v1.0 software program.
Small-molecule inhibition of PAK1 with IPA-3 achieved consistent results. PAK1 inhibition with IPA-3 was tested in nine different cells lines, both individually and in combination with BEZ235.

[2] = test system: Ly8 cells and normal human B cells (tonsil lymphocytes); experiment: Toxicity in Ly8 cells compared to normal B cells (alamar blue); assay type: cell-based; details: alone and in combination; 36 hours
Protocol: BEZ235 was tested in combination with the PAK1 inhibitor IPA-3 using Calcusyn software by applying the Chou-Talalay method. BJAB, HBL1, HBL2, HT, Ly8, and Riva cells were tested, as were normal tonsil lymphocytes. Ly8 and tonsillar lymphocytes were cultured in 96-well plates (approximately 500,000 cells/ml) for 36 hours in Iscove's modified Dulbecco's medium (IMDM) with 20% human AB serum. Viability was assessed with alamar blue dye and normalized to the lowest concentration of BEZ235 in each group.
Finally, BEZ235 and IPA-3 were administered separately and concurrently to normal human B cells to ascertain a therapeutic window between normal and malignant cells.

Compound: Oc1ccc2ccccc2c1SSc1c(O)ccc2ccccc12 [IPA-3]
- cell death at 10 μmol/L, upper end of the range ([1]; 10 μmol/L): no cell death
- IC50 ([1]; nine cell lines, read-out: observed IC50 values, lower end of range): ≥ 697 nM
- toxicity in Ly8 cells as compared to normal B cells [2]: selective toxicity
